# Source: patent US20230346727A1, “COMPOUNDS FOR THE TREATMENT OF HEMOPHILIA” (UNIVERSITE GRENOBLE ALPES, priority 2020, published 2023)
# What was measured:
# [1] = test system: plasma from the hemophiliac patient (hemophiliac patient A); experiment: Second ex vivo thrombin generation test (CAT analyzer, PPP Reagent LOW); assay type: biochemical, human; details: for Amount of thrombin at the maximum of the peak, normalized to the thrombin peak obtained with adapalene: 50 μM final in plasma (positive control: factor VIII 1 IU/mL), HEPES buffer, negative control 0.13 ± 0.02; for peak of generated thrombin compared to negative and positive control, in words: 50 μM final in plasma
# Procedure: A second thrombin generation test is carried out, for the compounds H27, H31, H32, H35, H38, H39 and the compound H24.
# The thrombin generation test was carried out at 37° C. using a CAT analyzer (Diagnostica Stago) with the PPP Reagent LOW reagent (Diagnostica Stago) in accordance with the manufacturer's instructions and according to the method established by Pr. Hemker in 2003. PPP Reagent LOW is a mixture of tissue factor (TF) 1 pM with phospholipid vesicles (PL, 4 μM). The test is triggered by the addition of a mixture of calcium+fluorescent substrate (ZGGR-AMC) (FluCa mixture).
# From a technical point of view, 80 μL of surcharged plasma sample is added to 20 μL of «initiator complex» (PPP Reagent LOW) and incubated for 10 min at 37° C. Then, the reaction is triggered by adding 20 μL of FluCa (mixture of CaCl2 and ZGGR-AMC substrate) and the fluorescence signal is measured over time. Each test is performed in triplicate.
# For each tested molecule, 247 μL of plasma from the hemophiliac patient were surcharged with 13 μL of a solution containing different amounts of compound (molecule to be tested, factor VIII or dilution buffer) to obtain the desired final concentration (systematic dilution of the molecule to be tested in the plasma at 1/20). For example, to obtain the final concentration of 50 μM in plasma, 13 μL of a 1 mM solution was added to 247 μL of plasma. In parallel with the tests on the different chemical compounds, the plasma of a hemophiliac patient is surcharged with the same buffer for diluting the compound, an 8% solution of dimethyl sulfoxide (DMSO), as a negative control (0.4% of final DMSO) in order to obtain the basal level of thrombin generation of the used plasma. The positive control is the same plasma surcharged with plasma factor VIII (Factane, LFB, France) at a concentration of 1 IU/mL (or 100% factor VIII) in order to obtain the expected «normal» level of thrombin generation used plasma.
# For this example, solutions of adapalene and 1 mM compounds were prepared with the buffer (18 mM HEPES, 135 mM NaCl, pH 7.35) instead of water as in Example 1. This modification has made it possible to increase the amount of thrombin generated by the plasma of the hemophiliac patient A in the presence of 50 μM of adapalene.
# Compounds were tested at a final concentration of 50 μM in plasma, and signal was measured over time. The obtained results, expressed as the amount of thrombin measured at the maximum of the peak obtained and normalized to the thrombin peak obtained with adapalene, are shown in Table 1 below: […]
# [2] = test system: plasma from a patient suffering from severe hemophilia A; experiment: Ex vivo thrombin generation test (STA-Genesia, STG-Bleedscreen reagent); assay type: biochemical, human
# Procedure: The thrombin generation test consists of measuring the kinetics of appearance of this key coagulation factor in the plasma over time. After activation of coagulation by calcium, the amount of thrombin changes over time. It is measured using a synthetic thrombin substrate coupled to a fluorescent molecule (ZGGR-AMC). The main parameters determined are the latency time before observing an increase in thrombin generation, the thrombin peak corresponding to the maximum amount of thrombin generated and the ETP (endogenous thrombin potential) corresponding to the total amount of thrombin generated in plasma during the test. In the case of a patient with hemophilia A, the generation of thrombin is low or even almost zero for some patients. Adding the missing coagulation factor (factor VIII) to its physiological level (1 Ul/mL or 100%) restores coagulation in patients and recovers a «normal» thrombin generation. Thus, the thrombin generation test makes it possible to globally evaluate the coagulation rate of a given plasma and in the present case, it makes it possible to evaluate the capacity of a molecule to restore or not restore coagulation in a hemophiliac patient.
# For this example, several ex vivo thrombin generation tests were carried out on plasma from a patient suffering from severe hemophilia A, therefore devoid of factor FVIII, in order to evaluate the effect on coagulation of a compound of general formula (I), more particularly adapalene, of formula (V) above, on the kinetics and the generated amount of thrombin.
# Hemophiliac patient plasma was obtained from Cryopep company (Montpellier, France).
# Adapalene is commercially available, in particular from Prestwick company. It was dissolved in an 8% dimethylsulfoxide (DMSO) solution then diluted to a concentration of 1 mM and then tested at the following concentrations: 50 μM, 5 μM, 0.5 μM (final concentrations in plasma).
# The thrombin generation test was performed at 37° C. using a fully automated STA-Genesia analyzer (Diagnostica Stago) with STG®-Bleedscreen reagent (Diagnostica Stago) according to the manufacturer's instructions and according to the method established by Pr. Hemker in 2003. The STG®-Bleedscreen reagent is a mixture of tissue factor (TF) at low concentration with phospholipid vesicles (PL). The test is triggered by the addition of a mixture of calcium+fluorescent substrate (ZGGR-AMC) (STG®-FluoStart mixture).
# From a technical point of view, 4 volumes of surcharged plasma sample are added to 1 volume of «initiator complex» (STG®-Bleedscreen) and incubated for 10 min at 37° C. Then, the reaction is triggered by adding 1 volume of STG®-FluoStart (mixture of CaCl2 and ZGGR-AMC substrate) and the fluorescence signal is measured over time. Each test is performed in duplicate
# For each tested molecule, 475 μL of plasma from the hemophiliac patient were surcharged with 25 μL of a solution containing different amounts of compound (molecule to be tested, factor VIII or dilution buffer) to obtain the desired final concentration (systematic dilution of the molecule to be tested in the plasma at 1/20). For example, to obtain the final concentration of 50 μM in plasma, 25 μL of a 1 mM solution was added to 475 μL of plasma. The preparation of 500 μL of surcharged plasma allows to perform the 2 thrombin generation tests (duplicate), the 2 calibration tests (duplicate) and takes into account the dead volume of the automaton.
# In parallel with the tests on the different chemical compounds, the plasma of a hemophiliac patient is surcharged with the same buffer for diluting the compound, an 8% solution of dimethylsulfoxide (DMSO), as a negative control (0.4% of final DMSO) in order to obtain the basal level of thrombin generation of the used plasma. The positive control is the same plasma surcharged with plasma factor VIII (Factane, LFB, France) at a concentration of 1 IU/mL (or 100% factor VIII) in order to obtain the expected «normal» level of used thrombin generation plasma. […]
# [3] = target: T1, FXa inhibition by TFPI-K1K2 (truncated human TFPI) (Homo sapiens, UniProt P10646, F53G); experiment: FXa activity assay: release of FXa inhibition by TFPI-K1K2 (colorimetric, PNAPEP-1025); assay type: biochemical; details: 50 μM, TFPI-K1K2 30 nM, FXa 0.5 nM
# T1 sequence (P10646 29-182 F53G): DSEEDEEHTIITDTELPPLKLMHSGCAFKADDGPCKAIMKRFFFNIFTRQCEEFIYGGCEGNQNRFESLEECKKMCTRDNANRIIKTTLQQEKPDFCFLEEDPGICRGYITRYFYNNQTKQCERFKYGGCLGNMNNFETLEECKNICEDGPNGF
# Procedure: The ability of adapalene to reverse FXa inhibition by TFPI was assessed by using a low TFPI concentration FXa activity assay. For this test, a truncated human TFPI (TFPI-K1K2) was used, which is common to both TFPI isoforms α and β, having the amino acid sequence SEQ ID No 1:
# Adapalene was tested for its ability to release FXa inhibition by TFPI-K1K2 using a colorimetric assay in a 96-well plate format. All steps were performed at room temperature. FXa inhibition by increasing TFPI-K1K2 concentrations was first analyzed to determine the best detection conditions. […]
# Briefly, 14.5 μL of 350 μM adapalene, prediluted in the buffer described above, was added to 62.5 μL 50 nM TFPI-K1K2 and mixed together by aspiration/dispensing. After 10 min of incubation at room temperature, 6.25 μL of 8 nM FXa was added, the mixture was mixed again, and the activity of uninhibited FXa was quantified by the addition of 18 μL of PNAPEP-1025 (Cryopep), an FXa substrate, diluted to 2 mM in H2O. […]
# The plates were centrifuged to remove any bubbles and the optical density (OD) at 405 nm, corresponding to the hydrolysis of the PNAPEP-1025 substrate, was measured for 1 h at room temperature. The absorbance value at t0, corresponding to an absorbance of 0.05, was subtracted and the […] restoration value was reported as a percentage of the positive control.
# [4] = adapalene 0.5 μM final in severe hemophilia A plasma
# [5] = adapalene 5 μM final in severe hemophilia A plasma
# [6] = adapalene 50 μM final in severe hemophilia A plasma
SMILES,"Amount of thrombin at the maximum of the peak, normalized to the thrombin peak obtained with adapalene [1]","peak of generated thrombin compared to negative and positive control, in words [1]",also measured
"C#CCOc1ccc(-c2ccc3cc(C(=O)O)ccc3c2)cc1C12CC3CC(CC(C3)C1)C2 [Compound H35, 6-(3-(adamantan-1-yl)-4-(prop-2-yn-1-yloxy)phenyl)-2-naphthoic acid]",0.53,,
"COc1ccc(-c2ccc3cc(C(=O)O)cc(O)c3c2)cc1C12CC3CC(CC(C3)C1)C2 [Compound H38, 6-(3-(adamantan-1-yl)-4-methoxyphenyl)-4-hydroxy-2-naphthoic acid]",0.96,much higher,
"COc1ccc(-c2ccc3cc(C(=O)O)ccc3c2)cc1C12C[C@H]3C[C@@H](C1)C[C@@H](C2)C3 [adapalene, 6-[3-(1-adamantyl)-4-methoxyphenyl]naphthalene-2-carboxylic acid]",1,much higher,"generation of thrombin (peak and ETP) compared to negative and positive control, in words ([2]; 50 μM in severe hemophilia A plasma, FIG. 3 and FIG. 4): increase in the generation of thrombin compared to the negative control; ETP (endogenous thrombin potential) [2, 4]: 455 nM·min; thrombin peak [2, 4]: 29.7 nM; ETP (endogenous thrombin potential) [2, 5]: 504 nM·min; thrombin peak [2, 5]: 39 nM; ETP (endogenous thrombin potential) [2, 6]: 588 nM·min; thrombin peak [2, 6]: 55 nM; coagulation restoration percentage (percentage of the positive control) [3]: approximately 14%; optical density (OD) at 405 nm, hydrolysis of PNAPEP-1025 by uninhibited FXa ([3]; negative control OD 0.048, positive control OD 0.406): 0.105"
"COc1ccc(N2CCc3cc(C(=O)O)ccc3C2)cc1C12CC3CC(CC(C3)C1)C2 [Compound H27, 2-(3-(adamantan-1-yl)-4-methoxyphenyl)-1,2,3,4-tetrahydroisoquinoline-6 carboxylic acid]",0.51,,
"COc1ccc(-c2ccc3cc(CS(=O)(=O)O)ccc3c2)cc1C12CC3CC(CC(C3)C1)C2 [Compound H39, (6-(3-(adamantan-1-yl)-4-methoxyphenyl)naphthalen-2-yl)methanesulfonic acid]",1.22,much higher,
"COc1ccc(-c2ccc3nc(C(=O)O)ccc3c2)cc1C12CC3CC(CC(C3)C1)C2 [Compound H31, 6-(3-(adamantan-1-yl)-4-m2thoxyph2nyl)quinoline-2-carboxylic acid]",0.62,,
"COc1ccc(-c2ccc(C(=O)NCC(=O)O)cc2)cc1C12CC3CC(CC(C3)C1)C2 [Compound H24, 2-(3′-(adamantan-1-yl)-4′-methoxy-[1,1′-biphenyl]-4-ylcarboxamido)acetic acid]",0.23,,
"COc1ccc(-c2ccc3cc(C(=O)O)cnc3c2)cc1C12CC3CC(CC(C3)C1)C2 [Compound H32, 7-(3-(adamantan-1-yl)-4-methoxyphenyl)quinoline-3-carboxylic acid]",0.55,,
